Tests used:
genomic DNA = assay: Chemmap genome-wide mapping of biotinylated doxorubicin binding sites; set-up: species or system human; conditions: K562 cells
Method: (§1) Cell preparation. U-2 OS cells were detached using accutase and immediately quenched using complete culture media. U-2 OS and K562 suspension cells were harvested by centrifugation and fixed in 0.1% formaldehyde (Thermo Scientific, 28906) in PBS for 2 min at room temperature, followed by quenching with glycine to a final concentration of 75 mM. Fixed cells were collected by centrifugation at 600×g for 4 min, followed by resuspension in cold wash buffer (20 mM HEPES pH7.5, 150 mM NaCl and 0.5 mM spermidine (Sigma, S0266)) in nuclease-free water supplemented with a complete Protease Inhibitor, EDTA-free (Sigma, 11873580001). (Note: For Chemmap of G4 ligands NaCl was replaced by equivalent concentrations of KCl in all buffers to maintain G4 stability. For optimal results, the concentration of cells needs to be adjusted based on target abundance and relative affinity of the probes. We employed cells at 1500 cells/μL (JQ1-bio) and 6000 cells/μL (G4 ligands and biotinylated doxorubicin))
Probe-1st Ab complex assembly. Compound stock solution in DMSO was diluted to 10 μM in antibody buffer (2 mM EDTA, 0.1% BSA (Sigma, A8577), 0.05% digitonin (EMD Millipore, 300410) in wash buffer). For 5 samples, 20 μL probe solution (10 μM) and 16.7 μL anti-biotin (D5A7) Rabbit mAb (Cell Signaling Technology, 5597, concentration is ˜10 μM) were added to 200 μL antibody buffer and incubated on ice for 1 h to perform a complex at high concentration (probe in excess 1.2:1 to avoid non-specific antibody binding). […]
Bead capture. For 5 samples, 50 μL (JQ1-bio) or 75 μL (G4 ligands and biotinylated Doxorubicin) concanavalin A beads (Bangs Labs, BP531) were washed twice in 1 mL binding buffer (20 mM HEPES pH 7.5, 10 mM KCl, 1 mM CaCl2, 1 mM MnCl2 in nuclease-free water) and resuspended in 75 μL binding buffer. 100 µL of cell suspension were incubated with 10 μL pre-washed concanavalin A beads at 25° C. for 10 min at 600 rpm. Beads-bound cells were gently washed twice with wash buffer, before resuspending in 100 μL probe-1st Ab solution and incubating at 4° C. overnight at 600 rpm.
2nd Ab-Tn5 transposome complexes assembly. For 5 samples, 2.5 μL 2nd Ab (Antibodies-Online, ABIN101961, RRID:AB_10775589) and 5 μL pA-Tn5 were added to 200 μL Dig-300 buffer (20 mM HEPES pH 7.5, 300 mM NaCl, 0.5 mM spermidine, 0.01% digitonin in nuclease-free water supplemented with Complete Protease Inhibitor, EDTA-free) and incubated on ice for 1 h. 300 μL antibody buffer were added to the 2nd-Tn5 complexes solution. (2nd Ab-Tn5 complexes at a ratio of 2:1).
Tagmentation. Cells were washed 3× with 500 μL Dig-wash buffer (0.05% digitonin in wash buffer) and resuspended in 100 μL 2nd Ab-Tn5 transposome solution and incubated at 25° C. for 1 h at 600 rpm. […]

BRD4 [1] = target: T1, BRD4 (Homo sapiens, UniProt O60885); conditions: K562 cells; published data; cited from earlier work
T1 construct: U-2 OS and K562 suspension cells were harvested by centrifugation and fixed in 0.1% formaldehyde; endogenous in cells; host or cells: K562 (human leukaemia) and U-2 OS cells

BRD4 [2] = target: T1, BRD4; assay: Chemmap genome-wide mapping of JQ1 binding sites, compared with BRD4 CUT&Tag; conditions: 150,000 K562 cells; JQ1-bio probe
Method: BRD4 CUT&Tag was performed as described before (H.S. Kaya-Okur, et al. Nat. Protoc., 15 (2020) e23641). Briefly, cells were incubated with activated concanavalin A-coated magnetic beads (Bangs Labs, BP531). The bead-bound cells were permeabilized and incubated with anti-BRD4 (E2A7X) rabbit antibody (Cell Signalling Technology, 13440), followed by rabbit anti-mouse IgG antibody (Antibodies-Online, ABIN101961, RRID:AB_10775589). Diluted pA-Tn5 adapter complex was then added followed by the tagmentation reaction. Extracted DNA fragments were used for library preparation and Illumina sequencing.

dsDNA = assay: FRET-melting assay; format: binding; conditions: 1 μM; negative control dsDNA; n=2
Method: 400 nM FAM-TAMRA dual-labelled oligonucleotides (Biomers) were annealed in assay buffer (60 mM potassium cacodylate, pH=7.4) at 95° C. for 5 min followed by gradually cooling to 20° C. A series of probe concentrations were prepared in a 8-well strip tube: 150 μL of 6 μM ligand in assay buffer was prepared as the initial concentration. Subsequent serial dilutions were made by adding 100 μL of probe solutions to 50 μL of assay buffer, resulting in 12 concentrations including a control (1% DMSO). 25 μL per solutions were transferred to 96-well plate, followed by adding 25 μL of annealed oligonucleotide solutions to each well. The plate was then sealed with an adhesive transparent cover and shaken gently for 10 min at room temperature. Measurements of restoring FAM signal were recorded on a Bio-Rad CFX96 Touch Real-Time PCR Detection System employing a temperature gradient from 25° C. to 95° C. at 0.5° C./min. Melting temperatures were determined by the first derivative maxima of relative fluorescence unit (RFU) value against […], and ΔTm was calculated by baseline correction of melting temperatures subtracting control group. A one-site binding model in GraphPad Prism 7 was utilised to fit FRET Tm curves. Mean was calculated from two replicates.

DNA G-quadruplex [3] = assay: Chemmap genome-wide mapping of G4 ligand binding sites (PDS, PhenDC3); set-up: species or system human; conditions: K562 cells; biotinylated probes
Method: as §1
(§2) Probe-1st Ab complex assembly. Compound stock solution in DMSO was diluted to 10 μM in antibody buffer (2 mM EDTA, 0.1% BSA (Sigma, A8577), 0.05% digitonin (EMD Millipore, 300410) in wash buffer). […]

DNA G-quadruplex [4] = assay: PDS Chemmap after treatment of live K562 cells with unmodified PDS (competition); format: cell-based, human; conditions: unmodified PDS 4 μM for 3 hr
Method: as §1, §2

K562 cells = assay: Dox-bio1 Chemmap in Tucidinostat-treated K562 cells; format: cell-based, human; conditions: Tucidinostat 1 μM, 72 h
Text: Mycoplasma-free human chronic myelogenous leukemia K562 cells (RRID:CVCL_0004) derived from a person were purchased from ATCC and cultured in RPMI 1640 (Gibco, 21875034) supplemented with 10% heat-inactivated fetal bovine serum (FBS, Gibco, A3840401). Human bone osteosarcoma epithelial U-2 OS cells (RRID:CVCL_0042) derived from a moderately differentiated sarcoma of the tibia of a person osteosarcoma were obtained from ATCC and cultured in DMEM (Gibco, 41966029) supplemented with 10% FBS. Both cell lines were grown in accordance with ENCODE cell culture protocols and periodically tested for mycoplasma contamination and identity confirmed by short tandem repeat (STR) typing. HDAC inhibitors (HDACi) were prepared at 10 mM as stock solution in DMSO. Cells were treated with HDACi dissolved to 1 μM final concentration or an equal concentration of vehicle (0.1% DMSO) for 72 hs.
Cell preparation. U-2 OS cells were detached using accutase and immediately quenched using complete culture media. U-2 OS and K562 suspension cells were harvested by centrifugation and fixed in 0.1% formaldehyde (Thermo Scientific, 28906) in PBS for 2 min at room temperature, followed by quenching with glycine to a final concentration of 75 mM. […]

## COc1cccc2c1C(=O)c1c(O)c3c(c(O)c1C2=O)C[C@@](O)(C(=O)COC(=O)CCCC(=O)NCCOCCOCCOCCOCCNC(=O)CCCC[C@H]1SC[C@H]2NC(=O)N[C@H]21)C[C@@H]3O[C@H]1C[C@H](N)[C@H](O)[C@H](C)O1 [Dox-bio1]
Genomic DNA; 200 nM, same condition
  material recovered compared to other tested probes: up to 30 fold
Genomic DNA
  consensus peaks for both Dox-bio1 and ATAC-seq: 12,896
  peaks located in open chromatin regions mapped by ATAC-seq: 95%
Genomic DNA; depending on the probe concentration
  high confidence Dox-bio1 binding sites: around 14k

## Cc1sc2c(c1C)C(c1ccc(Cl)cc1)=N[C@@H](CC(=O)NCCCNC(=O)OC1CC/C=C\CCC1)c1nnc(C)n1-2 (stereo partly shown) [JQ1-TCO]
BRD4 [1]
  signal averaged at BRD4 CUT&Tag high confidence loci: close to the baseline

## Cc1sc2c(c1C)C(c1ccc(Cl)cc1)=N[C@@H](CC(=O)NCCOCCOCCNC(=O)CCCC[C@@H]1SC[C@@H]3NC(=O)N[C@@H]31)c1nnc(C)n1-2 [JQ1-bio]
BRD4 [2]
  JQ1 binding sites observed in each experiment: around 10,000

## NCCOc1cc(C(=O)Nc2cc(OCCN)c3ccccc3n2)nc(C(=O)Nc2cc(OCCN)c3ccccc3n2)c1 [PDS, Pyridostatin]
dsDNA
  ΔTm on dsDNA: 0 °C
DNA G-quadruplex [3]
  overlap of high confidence binding sites with G4-seq data (OQS): ~89%
DNA G-quadruplex [4]
  PDS Chemmap sites lost compared to untreated: ~6000
  PDS Chemmap sites lost compared to untreated (percent): 60%

## NCCOc1cc(NC(=O)c2cc(OCCNC(=O)CCOCCOCCOCCOCCNC(=O)CCCC[C@@H]3SC[C@@H]4NC(=O)N[C@@H]43)cc(C(=O)Nc3cc(OCCN)c4ccccc4n3)n2)nc2ccccc12 [PDS-bio]
dsDNA
  ΔTm on dsDNA: 0 °C

## C[n+]1cc(NC(=O)c2ccc3ccc4c(NCCCCNC(=O)CCc5cn(CCOCCOCCOCCNC(=O)CCCC[C@@H]6SC[C@@H]7NC(=O)N[C@@H]76)nn5)cc(C(=O)Nc5cc6ccccc6[n+](C)c5)nc4c3n2)cc2ccccc21 [PhenDC3-bio]
dsDNA
  ΔTm on dsDNA: 0 °C

## C[n+]1cc(NC(=O)c2ccc3ccc4ccc(C(=O)Nc5cc6ccccc6[n+](C)c5)nc4c3n2)cc2ccccc21 [PhenDC3]
dsDNA
  ΔTm on dsDNA: 0 °C
DNA G-quadruplex [3]
  overlap of high confidence binding sites with G4-seq data (OQS): ~88%

## Nc1cc(F)ccc1NC(=O)c1ccc(CNC(=O)/C=C/c2cccnc2)cc1 [Tucidinostat]
K562 cells
  effect on doxorubicin binding (differential binding analysis): enhances the binding of doxorubicin
K562 cells; 95% in vehicle group
  Dox-bio1 binding sites within initial open chromatin region: 42%

Reference: patent US20250382657A1, “METHODS FOR MAPPING BINDING SITES OF COMPOUNDS” (Cambridge Enterprise Limited, priority 2022, published 2025)
